Reference: ChEMBL document CHEMBL1221220, “Transport and signaling via the amino acid binding site of the yeast Gap1 amino acid transceptor” (Nat Chem Biol, 2009)
Residue numbers refer to the chain shown, from its start. Active and inactive are the calls of the source. No cut-off for these calls is given here.

Tests used:
[1] = test system: T1, General amino-acid permease GAP1 (Saccharomyces cerevisiae), P19145 [L387C]; assay: Induction of yeast Gap1 L387C mutant-mediated amino acid uptake at 2 mM in presence of 10 mM MTSEA treated before compound addition
T1 sequence (whole entry): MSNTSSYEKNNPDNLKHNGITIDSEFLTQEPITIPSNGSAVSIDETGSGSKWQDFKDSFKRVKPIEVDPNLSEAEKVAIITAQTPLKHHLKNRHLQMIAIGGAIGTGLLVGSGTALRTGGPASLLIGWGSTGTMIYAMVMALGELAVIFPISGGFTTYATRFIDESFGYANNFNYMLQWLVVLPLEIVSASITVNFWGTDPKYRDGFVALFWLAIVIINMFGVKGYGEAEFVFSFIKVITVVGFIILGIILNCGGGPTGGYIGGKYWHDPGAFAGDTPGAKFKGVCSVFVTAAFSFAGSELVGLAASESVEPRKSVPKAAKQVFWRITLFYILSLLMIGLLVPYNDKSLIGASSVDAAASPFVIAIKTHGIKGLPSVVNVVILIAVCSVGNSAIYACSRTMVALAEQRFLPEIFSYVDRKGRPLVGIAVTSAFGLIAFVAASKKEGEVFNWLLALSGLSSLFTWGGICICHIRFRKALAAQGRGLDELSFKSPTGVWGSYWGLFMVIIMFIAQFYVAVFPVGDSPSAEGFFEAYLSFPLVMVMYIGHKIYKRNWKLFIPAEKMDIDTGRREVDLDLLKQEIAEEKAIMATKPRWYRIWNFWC

[2] = test system: T2, General amino-acid permease GAP1 (Saccharomyces cerevisiae), P19145 [R399C]; assay: Induction of yeast Gap1 R399C mutant-mediated trehalose activation at 2 mM in presence of 10 mM MTSEA treated before compound addition
T2 sequence (whole entry): T1 sequence (whole entry) with C387L, R399C

[3] = test system: T3, General amino-acid permease GAP1 (Saccharomyces cerevisiae), P19145 [C397C]; assay: Induction of yeast Gap1 C397C mutant-mediated amino acid uptake at 2 mM in presence of 10 mM MTSEA treated before compound addition
T3 sequence (whole entry): T1 sequence (whole entry) with C387L

[4] = test system: T4, General amino-acid permease GAP1 (Saccharomyces cerevisiae), P19145 [I384C]; assay: Induction of yeast Gap1 I384C mutant-mediated trehalose activation at 2 mM in presence of 10 mM MTSEA treated before compound addition
T4 sequence (whole entry): T1 sequence (whole entry) with I384C, C387L

[5] = test system: General amino-acid permease GAP1 (Saccharomyces cerevisiae), P19145 [V389C]; assay: Induction of yeast Gap1 V389C mutant-mediated amino acid uptake at 2 mM in presence of 10 mM MTSEA treated before compound addition
Sequence of General amino-acid permease GAP1 (Saccharomyces cerevisiae), P19145 [V389C] (P19145 whole entry V389C): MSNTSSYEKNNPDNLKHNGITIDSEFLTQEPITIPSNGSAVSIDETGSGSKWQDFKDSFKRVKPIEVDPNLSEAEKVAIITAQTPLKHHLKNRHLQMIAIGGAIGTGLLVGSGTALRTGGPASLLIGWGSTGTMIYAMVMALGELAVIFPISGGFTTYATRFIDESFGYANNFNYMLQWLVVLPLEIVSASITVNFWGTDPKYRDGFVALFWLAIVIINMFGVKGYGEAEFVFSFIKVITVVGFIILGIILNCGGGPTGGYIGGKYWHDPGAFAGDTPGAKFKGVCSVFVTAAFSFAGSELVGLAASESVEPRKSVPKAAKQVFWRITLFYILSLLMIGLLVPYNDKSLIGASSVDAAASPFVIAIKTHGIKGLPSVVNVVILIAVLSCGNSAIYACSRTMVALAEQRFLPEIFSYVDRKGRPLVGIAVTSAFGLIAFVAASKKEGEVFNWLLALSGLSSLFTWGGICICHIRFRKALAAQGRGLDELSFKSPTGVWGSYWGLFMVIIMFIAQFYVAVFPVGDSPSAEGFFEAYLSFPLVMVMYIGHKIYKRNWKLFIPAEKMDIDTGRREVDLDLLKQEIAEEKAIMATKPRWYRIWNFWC

NC(=O)NCCC[C@H](N)C(=O)O
Activity [1]: Active | inhibition [2]: Active | Activity [3]: Active | inhibition [4]: Active | inhibition [5]: inactive
